From patent US8106225B2, “Methods of preparing substituted tetracyclines with transition metal-based chemistries” (Trustees of Tufts College, priority 1999, dated 2012)

Key:
Assay in all cases: Antibacterial activity in vitro, MIC by broth dilution
Assay type in all cases: cell-based
[1] = test system: S. warnerii Tc^r ATCC12715; design: unit not given here; details: S. warnerii ATCC12715, tetracycline resistant, 18 hrs
Procedure: (§1) Various compounds made in accordance with the invention were evaluated for anti-bacterial activity in vitro as follows. The minimum inhibitory concentration, the lowest concentration of drug that inhibits bacterial growth at 18 hrs at their appropriate temperature, is determined by the broth dilution method using L-broth or Mueller-Hinton broth. The Mueller-Hinton broth was cation-adjusted accordingly and all bacteriological methods were performed as was described by Waitz, J. A., National Commission for Clinical Laboratory Standards Document M7-A2, vol. 10, no. 8, pp. 13-20, 2nd edition, Villanova, Pa. (1990). The organisms tested represent gram-positive and gram-negative bacterial species that are susceptible to tetracyclines or are resistant to tetracyclines due to the ability to efflux tetracyclines or which confer resistance by ribosomal protection mechanisms. The clinical strains used are either susceptible to tetracyclines or are resistant to them by either drug efflux or ribosomal protection.

E. coli ML308-225 Tc^s = test system: E. coli ML308-225 Tc^s; design: unit not given here; details: E. coli ML308-225, tetracycline susceptible, 18 hrs
Procedure: as §1

E. hirae ATCC9790 Tc^s = test system: E. hirae ATCC9790 Tc^s; design: unit not given here; details: E. hirae ATCC9790, tetracycline susceptible, 18 hrs
Procedure: as §1

E. coli D1-299 Tc^r = test system: E. coli D1-299 Tc^r; design: unit not given here; details: E. coli D1-299, tetracycline resistant, 18 hrs
Procedure: as §1

S. aureus MRSA5 Tc^r = test system: S. aureus MRSA5 Tc^r; design: unit not given here; details: S. aureus MRSA5, tetracycline resistant, 18 hrs
Procedure: as §1

E. coli D1-209 Tc^r = test system: E. coli D1-209 Tc^r; design: unit not given here; details: E. coli D1-209, tetracycline resistant, 18 hrs
Procedure: as §1

[2] = test system: E. hirae 9790 with pMV158 Tc^r; details: E. hirae 9790 with pMV158, tetracycline resistant, 18 hrs
Procedure: as §1

[3] = test system: E. coli D 31m4 pHCM1 Tc^r; details: E. coli D 31m4 pHCM1, tetracycline resistant, 18 hrs
Procedure: as §1

S. aureus RN450 Tc^s = details: S. aureus RN450, tetracycline susceptible, 18 hrs
Procedure: as §1

E. coli D31m4 Tc^s = details: E. coli D31m4, tetracycline susceptible, 18 hrs
Procedure: as §1

S. aureus RN4250 Tc^r = details: S. aureus RN4250, tetracycline resistant, 18 hrs
Procedure: as §1

[4] = test system: E. hirae 9790 with pAM211 Tc^r; details: E. hirae 9790 with pAM211, tetracycline resistant, 18 hrs
Procedure: as §1

Structure (SMILES)	Antibacterial Activity (minimum inhibitory concentration) [1]	Antibacterial Activity (minimum inhibitory concentration) (E. coli ML308-225 Tc^s)	Antibacterial Activity (minimum inhibitory concentration) (E. hirae ATCC9790 Tc^s)	Antibacterial Activity (minimum inhibitory concentration) (E. coli D1-299 Tc^r)	Antibacterial Activity (minimum inhibitory concentration) (S. aureus MRSA5 Tc^r)	Antibacterial Activity (minimum inhibitory concentration) (E. coli D1-209 Tc^r)	Antibacterial Activity (minimum inhibitory concentration) [2]	Antibacterial Activity (minimum inhibitory concentration) [3]	Antibacterial Activity (minimum inhibitory concentration) (S. aureus RN450 Tc^s)	Antibacterial Activity (minimum inhibitory concentration) (E. coli D31m4 Tc^s)	Antibacterial Activity (minimum inhibitory concentration) (S. aureus RN4250 Tc^r)	Antibacterial Activity (minimum inhibitory concentration) [4]
Cc1ccc(C=C2c3cccc(O)c3C(=O)C3=C(O)C4(O)C(=O)C(C(N)=O)=C(O)C(N(C)C)C4C(O)C23)cc1 (stereo not drawn) [I, [4S-(4a,12aα)]-13-(4′-methylphenyl)-4-(dimethylamino)-1,4,4a,5,5a,6,11,12a-octahydro-3,5,10,12,12a-pentahydroxy-6-methylene-1,11-dioxo-2-naphthacenecarboxamide]	12.5	>50	0.39	>50	6.25	>50	3.12	25	≦0.098			
CN(C)[C@@H]1C(O)=C(C(N)=O)C(=O)C2(O)C(O)=C3C(=O)c4c(O)cccc4C(=Cc4cccc(C(=O)O)c4)C3C(O)C12 (stereo partly drawn) [J, [4S-(4a,12aα)]-13-(3′-carboxyphenyl)-4-(dimethylamino)-1,4,4a,5,5a,6,11,12a-octahydro-3,5,10,12,12a-pentahydroxy-6-methylene-1,11-dioxo-2-naphthacenecarboxamide]	>50	>50	3.12	>50	>50	>50	>50	>50	0.39	>50	>50	>50
CN(C)C1C(O)=C(C(N)=O)C(=O)C2(O)C(O)=C3C(=O)c4c(O)ccc(-c5ccc(Cl)cc5)c4CC3CC12 (centres unmarked) [G]	≦0.098	>50	≦0.098	>50	0.195	>50	≦0.098	0.78	≦0.098	0.78	≦0.098	≦0.098
CCCCOC(=O)/C=C/c1cc(N(C)C)c2c(c1O)C(=O)C1=C(O)C3(O)C(=O)C(C(N)=O)=C(O)C(N(C)C)C3CC1C2 (stereo not drawn) [F, [4S-(4a,12aα)]-9-[3′-(E)-butylpropenoate]-4,7-Bis(dimethylamino)-1,4,4a,5,5a,6,11,12a-octahydro-3,10,12,12a-tetrahydroxy-1,11-dioxo-2-naphthacenecarboxamide]	3.12	>50	3.12	>50	3.12	>50		6.25	1.56	3.12		
CN(C)C1C(O)=C(C(N)=O)C(=O)C2(O)C(O)=C3C(=O)c4c(O)c(-c5ccccc5)cc(-c5ccccc5)c4CC3CC12 (stereo not drawn) [H, [4S-(4a,12aα)]-7-phenyl-9-phenyl-4-(dimethylamino)-1,4,4a,5,5a,6,11,12a-octahydro-3,10,12,12a-tetrahydroxy-1,11-dioxo-2-naphthacenecarboxamide]	0.78	>50	0.78	>50	0.78	>50	0.39		1.56	1.56	0.78	
C[C@H]1c2cccc(O)c2C(=O)C2=C(O)[C@]3(O)C(=O)C(C(N)=O)=C(O)[C@@H](N(C)C)[C@@H]3[C@@H](O)[C@@H]21 [Doxy, [4S-(4a,12aα)]-4-(dimethylamino)-1,4,4a,5,5a,6,11,12a-octahydro-3,5,10,12,12a-pentahydroxy-6-methyl-1,11-dioxo-2-naphthacenecarboxamide, reference compound]	50	0.78	0.195	25	6.25	50		25	<0.098	1.56	25	
CCCCOC(=O)/C=C/c1ccc2c(c1O)C(=O)C1=C(O)C3(O)C(=O)C(C(N)=O)=C(O)[C@@H](N(C)C)C3C(O)C1C2C (stereo partly drawn) [E, [4S-(4a,12aα)]-9-[3′-(E)-butylpropenoate]-4-(dimethylamino)-1,4,4a,5,5a,6,11,12a-octahydro-3,5,10,12,12a-pentahydroxy-6-methyl-1,11-dioxo-2-naphthacenecarboxamide]	6.25	6.25	3.12	>50	0.39	>50			0.78			
CCOc1ccc(C=C2c3cccc(O)c3C(=O)C3=C(O)C4(O)C(=O)C(C(N)=O)=C(O)C(N(C)C)C4C(O)C23)cc1 (stereo not drawn) [K, [4S-(4a,12aα)]-13-(4′-ethoxyphenyl)-4-(dimethylamino)-1,4,4a,5,5a,6,11,12a-octahydro-3,5,10,12,12a-pentahydroxy-6-methylene-1,11-dioxo-2-naphthacenecarboxamide]	12.5		0.39	>50	6.25	>50		>50	0.195			3.12
